Legend:
Aβ42 [1] = molecular target: T1, Aβ42 (Homo sapiens, UniProt P05067); assay: Seeded Aβ42 aggregation kinetics (2% or 50% preformed fibril seeds); format: biochemical; details: 2 μM Aβ42
T1 construct: […]; made in house; host or cells: E. coli BL21 Gold (DE3)
Protocol: For the seeded experiments, preformed fibrils were prepared just prior to the experiment. Kinetic experiments were set up as described above for 5 μM Aβ42 samples in 20 mM sodium phosphate buffer, pH 8 with 200 μM EDTA, 0.02% NaN3 and 20 μM ThT. The ThT fluorescence was monitored for 3 hours to verify the formation of fibrils. Samples were then collected from the wells into low-binding tubes. Under the considered conditions (i.e. 5 μM Aβ42), the monomer concentration is negligible at equilibrium. The final concentration of fibrils, in monomer equivalents, was considered equal to the initial concentration of monomer. Fibrils were then added to freshly prepared monomer in order to reach either 2% or 50% final concentration of seeds in the absence or the presence of Netoglitazone.
Inhibitors can interfere with the aggregation process by inhibiting one or more of the individual microscopic steps. We can identify the microscopic events that are inhibited by the chemical compounds by fitting the integrated rate law (Eq. (54) in Cohen et al., J Chem Phys 135, 065106) to the macroscopic aggregation profiles and comparing the fitted set of microscopic rate constants (k+k2 and k+kn in the absence of pre-formed seeds; k+ and k2 in the presence of pre-formed seeds where primary nucleation is bypassed) required to describe the time evolution of the fibril formation in the absence and presence of Netoglitazone. The analysis is analogous to that carried out in Habchi et al., Proc Natl Acad Sci USA; 114(2):E200-E208, 2017 to study the effects of other small molecules on Aβ42 aggregation.

Aβ42 [2] = molecular target: T1, Aβ42; assay: Aβ42 aggregation kinetics in human CSF; format: biochemical; details: 66% CSF; 1.25 and 5-fold excess
Protocol: For the experiments of Aβ42 aggregation kinetics in human CSF, monomeric solutions of 3 μM Aβ42 were prepared similar to above with the only exception that the buffer was 20 mM Hepes, pH 8 supplemented with 1 mM CaCl2 at 150 mM NaCl. The obtained monomer was diluted with the […] in order to reach 66% final concentration of CSF, in which the effect of CSF is close to maximum. Aβ42 aggregation kinetics were performed in the absence and the presence of 1.25 and 5-fold excess of Netoglitazone.

NL5901 (α-syn worms) = assay: Automated motility assay, α-syn worms; format: in vivo, C. elegans; details: same concentration range; compared with effect in Aβ worms
Protocol: NL5901 (pkIs2386 [α-synuclein::YFP unc-119(+)]) (“α-syn worms”), in which α-synuclein fused to YFP relocates to inclusions, which are visible as early as day 2 after hatching and increase in number and size during the aging of the animals, up to late adulthood (day 17) (T. J. Van Ham et al., C. elegans model identifies genetic modifiers of α-synuclein inclusion formation during aging. PLoS Genetics. 4 (2008));
(§1) Briefly, Netoglitazone stocks (5 mM in 100% DMSO) were used at an appropriate concentration to seed 9-cm NGM plates. Plates were then placed in a laminar flow hood at room temperature (22° C.) for up to 4 hours to dry. […]
(§2) All C. elegans populations were cultured at 20° C. and developmentally synchronized from a 4 h egg-lay. At 64-72 h post-egg-lay (time zero), individuals were transferred to FUDR plates, and body movements were assessed over the times indicated. At different ages, the animals were washed off the plates with M9 buffer and spread over an OP-50 unseeded 9 cm plate, after which their movements were recorded at 20 fps using a recently developed microscopic procedure (M. Perni et al., Massively parallel C. elegans tracking provides multi-dimensional fingerprints for phenotypic discovery. J. Neurosci. Methods. 306, 57-67 (2018)) for 1 min. Up to 600 animals were counted in each experiment in duplicate unless stated otherwise. […]

GMC101 (Aβ worms) = assay: NIAD-4 plaque staining in living Aβ worms; format: in vivo, C. elegans
Protocol: Plaques staining was carried out as previously described (J. Habchi et al. (2016); M. Perni et al., A natural product inhibits the initiation of α-synuclein aggregation & suppresses its toxicity. Proc. Natl. Acad. Sci. U.S.A. 114, E1009-E1017 (2017)). Briefly, live transgenic animals were incubated with NIAD-4 over a range of concentrations and times, with 1 μM NIAD-4 (0.1% DMSO in M9 buffer) for 4 hours at room temperature. After staining, animals were allowed to recover on NGM plates for about 24 hours to allow destaining via normal metabolism. Stained animals were mounted on 2% agarose pads containing 40 mM NaN3 as anaesthetic on glass microscope slides for imaging. Images were captured with a Zeiss Axio Observer D1 fluorescence microscope (Carl Zeiss Microscopy GmbH) with a 20× objective and a 49004 ET-CY3/TRITC filter (Chroma Technology Corp). Fluorescence intensity was calculated using ImageJ software (National Institutes of Health) and then normalized as the corrected total cell fluorescence. Only the head region was considered because of the high background signal in the guts. All experiments were carried out in triplicate, and the data from one representative experiment are shown. Statistical significance was determined using t tests.

[3] = system: CL2331 (Aβ3-42::GFPMuscular worms); assay: Automated motility assay, Aβ3-42::GFPMuscular worms; format: in vivo, C. elegans; details: compared to untreated worms
Protocol: CL2331; dvIs37 [myo-3p::GFP::A-Beta (3-42)+rol-6(su1006)] (Aβ3-42::GFPMuscular worms). Maintain at 16 C. Roller. Diffuse and aggregated GFP expression in body wall muscle. Low brood size. Sicker at higher temperatures. (C. D. Link et al., The β amyloid peptide can act as a modular aggregation domain. Neurobiol. Dis. 32, 420-425 (2008));
as §1, §2

T1 sequence (P05067 671-713): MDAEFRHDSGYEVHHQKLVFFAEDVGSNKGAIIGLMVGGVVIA

O=C1NC(=O)C(Cc2ccc3cc(OCc4ccccc4F)ccc3c2)S1 (centres unmarked) [Netoglitazone]
decrease of rate constant of surface-catalyzed secondary nucleation (k2) (Aβ42 [1]; 2% seeds, 20-fold excess): about 80%
inhibition of secondary pathways (k2k+) with 2% preformed seeds (Aβ42 [1]; 2% seeds, range of concentrations): concentration-dependent inhibition of secondary pathways
effect on aggregation kinetics with 50% preformed seeds (elongation) (Aβ42 [1]; 50% seeds, up to 20-fold excess): did not affect the aggregation kinetics
delay of Aβ42 aggregation kinetics in 66% human CSF (Aβ42 [2]): significantly delayed the aggregation kinetics
effect on mobility of α-syn worms (NL5901 (α-syn worms)): negligible
plaques load (NIAD-4 fluorescence) (GMC101 (Aβ worms); 0.5 μM, treatment at L4, day 6 of adulthood): significantly decrease the plaques load
plaques load after late administration (GMC101 (Aβ worms); administered at D3 of adulthood, measured at D6): significant decrease of the plaques load
motility of Aβ3-42::GFPMuscular worms [3]: significantly improves the motility
